The values that follow come from US7737158B2, “Processes for regulating blood glucose in a mammal” (Washington University, priority 2005, dated 2010).

Series [1] deals with Chinese hamster ovary (CHO) cells. The series can be described thus: Secretion assay with brefeldin A in transfected CHO cells (Western blot). The class given is cell-based. Particulars: BFA-treated transfected CHO cells. The protocol:
Cell extracts and culture supernatants were collected 48 hours after transfection, and subjected to immunoprecipitation with anti-FLAG® antibody-conjugated beads as described above, and analyzed by Western Blot with rabbit polyclonal anti-FLAG® antibody (Sigma, MO). Cells were also treated with BFA as described above.
Background: Immunoblotting shows a protein as a band on a membrane.

Series [2] concerns HIB-1B adipocytes. The series can be described thus: Secretion assay with brefeldin A in differentiated HIB-1B adipocytes (Western blot). The class given is cell-based, mouse. Particulars: BFA 0.5 ug/ml, 12 hours, differentiated HIB-1B adipocytes (day 8). The protocol: HIB-1B cells expressing Nampt-FLAG, Dhfr-FLAG, and Ppl-FLAG were differentiated to mature adipocytes (day 8) in 10-cm dishes, and their cell extracts were collected and immunoprecipitated as described above. Culture supernatant (˜8 ml) were collected and immunoprecipitated overnight at 4° C. with anti-FLAG antibody-conjugated beads, washed twice with PBS, and analyzed by Western Blot with rabbit polyclonal anti-FLAG antibody (Sigma, MO).
Brefeldin A (BFA), a potent inhibitor of the classical secretory pathway, was added to examine if Nampt-FLAG® is secreted through the ER-Golgi system. Fully differentiated HIB-1B adipocytes (day 8) were treated with BFA (0.5 ug/ml, Sigma, MO) for 12 hours, and cell extracts and culture supernatants were collected and analyzed as described above.

Series [3] concerns C57BL/6 mice. Put plainly: Blood glucose levels after intraperitoneal injection in fasted C57BL/6 mice. The class given is in vivo, mouse. Particulars: for effect on blood glucose levels at lower dose: 50 mg/kg intraperitoneal, compared with 500 mg/kg; for blood glucose levels: 4-hr fast, 0-120 min after injection. On the procedure: In this Example, five adult mice (C57BL/6; male; 3-4 months of age) were subjected to a 4-hr fast followed by intraperitoneal injection (500 mg/kg; 50 mg/kg) of nicotinamide, nicotinamide mononucleotide (NMN), or nicotinamide adenine dinucleotide (NAD). A control group of five fasted mice ([…]) were injected with PBS.
Blood glucose levels were measured from tail vein blood samples with an Accu-Chek glucometer (Roche Diagnostics) at 0, 15, 30, 60 and 120 min after injection.

Series [4] has as its system Nampt^+/− mice. The series can be described thus: Intraperitoneal glucose tolerance test (IPGTT) after NMN administration in Nampt+/- mice. The class given is in vivo, mouse. On the procedure: Intraperitoneal glucose tolerance tests (IPGTTs) were conducted with a does of 3 g dextrose/kg body weight on Nampt^+/− and Nampt^+/+ siblings. For the IPGTTs, after mice were injected with PBS or NMN (500 mg/kg body weight) and fasted for 12-14 hours, dextrose (3 g/kg body weight) was injected intraperitoneally, and blood glucose levels were measured at 0, 15, 30, 60, and 120 min after injection. Plasma was also collected at 0 and 30 min time points after glucose injection and submitted for insulin measurements to the Washington University RIA Core facility. For the ITTs, after female mice were fasted for 4 hours, human insulin (0.75 U/kg body weight) (Lilly) was injected intraperitoneally to these mice, and blood glucose levels were measured at 0, 15, 30, 45, and 60min after insulin injection.
If the NAD biosynthetic activity of Nampt is responsible for the phenotypes observed in Nampt^+/− mice, the administration of NMN, a product of the Nampt enzymatic reaction, should be able to correct their problems. To test this possibility, the same Nampt^+/− mice that were used for IPGTTs were injected with NMN at a dose of 500 mg/kg body weight intraperitoneally ˜14 hrs prior to IPGTTs. As a control, PBS was injected to the mice ˜14 hrs before conducting previous IPGTTs. […] Blood glucose levels were monitored with a glucometer at 0, 30, and 60 min time points after injection.

Series [5] relates to B6 mice. The series can be described thus: Toxicity of NMN dose in B6 mice. The class given is in vivo, mouse. Particulars: NMN 500 mg/kg body weight. From the text: Therefore, it will be of great interest to examine whether NMN administration also alleviates the effects of Nampt haplodeficiency in HFD-fed Nampt^+/− mice and even improves the symptoms in HFD-fed Nampt^+/+ mice. […] NMN administration causes an acute increase in blood glucose within 2 hrs, probably due to the rapid release of calcium and eicosanoid in the liver (Broetto-Biazon et al., Eur. J. Pharmacol., (2004) 484, 291-301). Therefore, physiological tests will be conducted ˜14 hrs after NMN injection, as described in Example 18.

For series [6], the system named is mouse mammary carcinoma model. Particulars: eight intraperitoneal injections, 25 mg/kg per injection, 12-hour interval; Muruganandham et al. 2005; cited from earlier work.
Series [7] relates to NIH3T3 cells. Put plainly: Total cellular NAD levels in NIH3T3 cells by HPLC. Particulars: addition of 5 mM nicotinamide to the medium (otherwise 33 μM). The class given is cell-based, mouse. On the procedure: Total cellular levels of NAD was measured in the NIH3T3 cell lines overexpressing the untagged enzymes. High performance liquid chromatography was used to measure NAD (Neubert et al., Biochim. Biophys. Acta., (1964) 92, 610-612; Emanuelli et al., J. Chromatogr., (1996) B. 676, 13-18). Briefly, 5×10^5 cells were plated in 6 cm dishes and harvested 48 h later in 800 μl of ice-cold PBS. Cells were then spun down and lysed with 300 μl of 1M HClO4 on ice for 10 min. Lysates were cleared by centrifugating at 4° C. at 18,000 g for 5 minutes. Cleared lysates (240 μl) were neutralized by adding 80 μl of 3M K2CO3 and incubating on ice for 10 minutes. After centrifuging for 10 min, 100 μl of the supernatant were mixed with 400 μl of Buffer A and loaded onto the column. The HPLC was run at a flow rate of 1 ml/min with 100% Buffer A from 0 to 5 min, a linear gradient to 95% Buffer A and 5% Buffer B (100% methanol) from 5 to 6 min, 95% Buffer A and 5% Buffer B from 6 to 11 min, a linear gradient to 85% Buffer A and 15% Buffer B from 11 to 13 min, 85% Buffer A and 15% Buffer B from 13 to 23 min, and a linear gradient to 100% Buffer A from 23 to 24 min. NAD was eluted as a sharp peak at 22 min. The amount of NAD was quantitated based on the peak area compared to a standard curve.

Entries after “also recorded” stand apart in the source; their conditions may differ. Some results are limits rather than exact numbers.

On to `C[C@H]1CCC/C=C/[C@@H]2C[C@H](O)C[C@H]2[C@H](O)/C=C/C(=O)O1` [BFA, Brefeldin A], for which, in series [1], the “secretion of Prl-FLAG” value is “significantly inhibited” and the “secretion of extracellular Nampt” value was “unaffected”. Also, in series [2], the “eNampt levels in supernatant (extracellular Nampt secretion)” value is given as “not affected; also recorded: not inhibited” and the “secretion of Prl-FLAG” value is given as “significantly inhibited”. Moreover, in series [2] (listed as brefeldin A), the “secretion of Prl-FLAG” value is on record as “inhibited”.

Take `NC(=O)c1ccc[n+]([C@@H]2O[C@H](COP(=O)([O-])OP(=O)(O)OC[C@H]3O[C@@H](n4cnc5c(N)ncnc54)[C@H](O)[C@@H]3O)[C@@H](O)[C@H]2O)c1` [NAD, Nicotinamide adenine dinucleotide]: the “effect on blood glucose levels at lower dose” value (shortened to “effect … at lower dose”) in series [3] is “weaker”. For the same molecule, the blood glucose levels result in series [3] (500 mg/kg intraperitoneal) is listed as “significantly increased”. Also, in series [3] (500 mg/kg intraperitoneal, comparison between compounds), the “kinetics of glucose increase” value was “much more pronounced and long-lasting effect”.

For `NC(=O)c1ccc[n+]([C@@H]2O[C@H](COP(=O)([O-])O)[C@@H](O)[C@H]2O)c1` [NMN, Nicotinamide mononucleotide], the “glucose tolerance in IPGTT” value in series [4] (NMN 500 mg/kg intraperitoneally ~14 hrs prior to IPGTT, Nampt+/- mice compared to Nampt+/+) is reported as “no longer showed impaired glucose tolerance; also recorded: corrected impaired glucose tolerance; also recorded: can correct”. In series [4] (NMN 500 mg/kg intraperitoneally ~14 hrs prior, 30 min after glucose injection, Nampt+/- mice), the “glucose-stimulated insulin secretion (plasma insulin) in IPGTT” value is on record as “robust insulin secretion similar to that in Nampt^+/+ mice; also recorded: corrected”. In series [3], the “effect … at lower dose” value is given as “weaker”. Also, in series [3] (500 mg/kg intraperitoneal), the blood glucose levels entry is “significantly increased”. For the same molecule, the “time within which the acute increase in blood glucose occurs after administration” value in series [3] (NMN administration) is no more than 2 h. For the same molecule, the toxicity result in series [5] was “not cause any obvious toxicity”.

Consider `O=C(/C=C/c1cccnc1)NCCCCC1CCN(C(=O)c2ccccc2)CC1` [FK866], for which, in series [6], the “inhibition of NAD biosynthesis in vivo” value is listed as “effective to inhibit NAD biosynthesis” and the toxicity entry was “without any obvious toxicity”.

For `NC(=O)c1cccnc1` [nicotinamide, 3-pyridinecarboxamide], the “effect … at lower dose” value in series [3] is recorded as “weaker”. The blood glucose levels entry in series [3] (500 mg/kg intraperitoneal) was “significantly increased”. Further, in series [7], the “total cellular NAD level” value was “did not increase NAD”.
